# Tested on: TALL-104 lytic granule exocytosis, LAMP-1 flow cytometry
# Test: potency against LAMP-1 externalization in TALL-104 – TALL-104 cells, flow cytometry, CherryPick01, dose response (AID 652101)
# Settings: stimulated with 1 µM thapsigargin, 50 nM PMA
row,SMILES,EC50 [µM]
1,CC1=NOC(=O)/C1=C/c1ccc(-c2ccc(Cl)cc2)o1,1.68
2,CC1COCC(C)N1C1=C(Cl)C(=O)c2ccccc2C1=O (stereo not drawn),1.61
3,Cc1cc(C)c2nc(C)cc(N/N=C/c3ccc(O)cc3)c2c1,4.47
4,O=C1Nc2ccc(Br)cc2/C1=C/C(=O)c1ccccc1,3.13
5,CCOc1ccc2[nH]c3c(N4CCc5ccccc5C4)ncnc3c2c1,4.91
6,CC1=C(C)CS(=O)N(S(=O)(=O)c2ccc(Cl)cc2)C1 (stereo not drawn),2.88
7,c1ccc(CNc2nc(NCC3CC3)nc3cc(-c4ccccc4)sc23)cc1,2.22
8,O=C(CN1C(=O)/C(=C\c2cccc(Br)c2)Oc2ccccc21)NCCCN1CCOCC1,4.61
9,COc1cccc(-c2cnc3c(NC(C)=O)cc(-c4ccccc4OC)cn23)c1,5.23
10,COc1ccc(-n2sc3ccccc3c2=O)cc1,9
11,COc1ccccc1CNc1nc(NCc2ccc3occc3c2)c2sccc2n1,4.23
12,Fc1ccc(/C=C\c2nccc3c2[nH]c2ccccc23)cc1,1.66
13,CCc1ccc(/C=C2/Sc3ccccc3N(CC(=O)NCCCN3CCOCC3)C2=O)cc1,5.17
14,CCOC(=O)c1cc(-c2csc(Nc3c(C)cc(C)cc3C)n2)on1,3.44
15,COc1ccc(N2C(=O)CC(Sc3nnc(-c4ccccc4)o3)C2=O)cc1 (stereo not drawn),0.897
16,CCOc1ccc2nc(C)cc(Nc3cccc([N+](=O)[O-])c3)c2c1,6.14
17,Cc1cc(N2CCN(c3nc(-c4ccc([N+](=O)[O-])cc4)cs3)CC2)c2ccccc2n1,1.62
18,O=C(OCc1ccccc1)N(CCCCN(CCCNCc1ccccc1)C(=O)OCc1ccccc1)CCCNCc1ccccc1,1.24
19,CCCCn1c(=N)n(CC(=O)c2ccc(Br)s2)c2ccccc21,3.99
20,O=C1CC(Sc2nnnn2-c2ccccc2)C(=O)N1c1cccc(Cl)c1 (stereo not drawn),0.289
21,CCCCC[C@@H](C)N1C[C@@H](COCc2ccccc2)Oc2cc(N3CC[C@H](N(C)C)C3)ccc2S1(=O)=O,9.73
22,O=C(Cn1sc2ccccc2c1=O)NC12CC3CC(CC(C3)C1)C2,5.13

# Second part, the molecule after the results:
row,EC50 [µM],SMILES
1,3.38,CCCS(=O)(=O)Nc1ccc(Nc2c3ccccc3nc3ccccc23)c(OC)c1
2,6.27,COC(=O)c1c(NC(=O)c2nc3ccccc3s2)sc2c1CC(C)(C)NC2(C)C
3,4.98,COc1cccc(-c2cnc3c(NC(C)=O)cc(-c4ccsc4)cn23)c1
4,1.33,COc1cccc(N2CCN(c3ncnc4c3[nH]c3ccc(F)cc34)CC2C)c1 (stereo not drawn)
5,2.46,Cc1ccc(-n2nnc3c(=O)oc4ccccc4c32)cc1
6,0.344,O=C(Nc1ccc(F)cc1)c1nc(S(=O)(=O)Cc2ccccc2)ncc1Cl
7,4.41,Cc1ccc(S(=O)(=O)n2ccc3c(OCCOCCNCc4ccc(F)cc4)cccc32)cc1
8,2.36,O=c1c2ccccc2sn1-c1ccccc1
9,4.83,COc1cccc(NC(=O)Nc2nc(-c3ccc(OC)c(OC)c3)cs2)c1
10,3.23,CN1Cc2c(N3CCOCC3)nc3sc(C(=O)c4ccc(Br)cc4)c(N)c3c2CC1(C)C
11,4.22,O=S(=O)(c1ccccc1)c1nnn2c1nc(NC1CCN(Cc3ccccc3)CC1)c1cc(Cl)ccc12

# Source: PubChem BioAssay AID652101 (NMMLSC, 2013)
